Measurements as given in patent US12503452B2 (Curza Global, LLC, priority 2019, dated 2025).
Read-outs that look alike come from different tables or passages of the source.

Columns and labels:
A. baumannii (Ab) = assay: Broth microdilution minimum inhibitory concentration (MIC); assay type: cell-based; settings: A. baumannii; for MIC: Acinetobacter baumannii, read-out: Ab + bicarb MIC
How it was run: (§1)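 Inoculum of 5×10^4 CFU/well, prepared from colonies grown to 0.5 McFarland (A600) at 35±2 °C, is exposed to two-fold serial dilutions in CAMHB-based media (± bicarbonate or human serum). Modified CLSI microdilution, triplicate.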

S. aureus (Sa) = assay: as above; assay type: cell-based; settings: S. aureus; for MIC: Staphylococcus aureus, read-out: Sa + bicarb MIC
How it was run: as §1

E. coli (Ec) = assay: as above; assay type: cell-based; settings: E. coli; for MIC: Escherichia coli, read-out: E. coli + bicarb MIC
How it was run: as §1

E. faecalis (Ef) = assay: as above; assay type: cell-based; settings: E. faecalis; for MIC: Enterococcus faecalis, read-out: Ef + bicarb MIC
How it was run: as §1

P. aeruginosa (Pa) = assay: as above; assay type: cell-based; settings: P. aeruginosa; for MIC: Pseudomonas aeruginosa, read-out: Pa MIC + bicarb
How it was run: as §1

[1] = biological target: Rabbit Reticulocyte Lysate (eukaryotic protein synthesis); assay: Rabbit reticulocyte lysate luciferase assay (inhibition of eukaryotic protein synthesis); assay type: biochemical; settings: class by IC50 or % inhibition @ 1 μM, read-out: Rabbit reticulocyte IC50 (μM/% inhib.)
How it was run: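 Compounds were tested in 8-point 2-fold dilution series for blocking luciferase synthesis in nuclease-treated rabbit reticulocyte lysate (30° C., 90 minutes). Luminescence read-out, corrected by no-RNA background, was expressed as % inhibition against water-only reactions.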

[2] = test system: E. coli S30 extract (bacterial protein synthesis); assay: E. coli S30 extract coupled transcription-translation luciferase assay (inhibition of bacterial protein synthesis); assay type: biochemical; settings: class by IC50 or % inhibition @ 1 μM, read-out: S30 IC50 (μM/% inhib.)
How it was run: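 Luminescent read-out of luciferase made from pBESTluc DNA by E. coli S30 extract after 1 h at 37 °C with compound in an 8-point 2-fold series. Background came from no-DNA reactions. Percent inhibition was calculated against water-only controls.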

[3] = growth medium with sodium bicarbonate
[4] = growth medium supplemented with sodium bicarbonate

SMILES: CCN(C(C)Cc1ccc(-n2ccc(NC(=O)N3CCN(C(=O)C(C)(C)N)CC3)nc2=O)cc1)C1CCC(N)CC1 (stereo not drawn) [Compound 282]
- Ab + bicarb MIC (A. baumannii (Ab); [3]): + (An MIC value (μg/mL) that is 32 μg/mL or greater)
- Sa + bicarb MIC (S. aureus (Sa); [3]): +++ (An MIC value (μg/mL) that is less than 8 μg/mL)
- E. coli + bicarb MIC (E. coli (Ec); [3]): +++ (An MIC value (μg/mL) that is less than 8 μg/mL)
- Ef + bicarb MIC (E. faecalis (Ef); [3]): + (An MIC value (μg/mL) that is 32 μg/mL or greater)
- Pa MIC + bicarb (P. aeruginosa (Pa); [3]): + (An MIC value (μg/mL) that is 32 μg/mL or greater)
- IC50 [1]: > 1 µM
- IC50 [2]: > 1 µM

SMILES: C[C@@H](N)C1CCN(Cc2ccc(-n3ccc(NC(=O)N4CCN(C(=O)C(C)(C)N)CC4)nc3=O)cc2)CC1 [Compound 219]
- MIC (A. baumannii (Ab); [3]): > 32 µg/mL
- MIC (S. aureus (Sa); [3]): < 8 µg/mL
- MIC (E. coli (Ec); [3]): < 8 µg/mL
- MIC (E. faecalis (Ef); [3]): 8 to 32 µg/mL
- MIC (P. aeruginosa (Pa); [3]): > 32 µg/mL
- IC50 [1]: > 1 µM
- IC50 [2]: 0.5 to 1 µM

SMILES: CC[C@H]1CN(Cc2ccc(-n3ccc(NC(=O)N4CCN(C(=O)C(C)(C)N)CC4)nc3=O)cc2)CC[C@H]1N [Compound 212]
- MIC (A. baumannii (Ab); [3]): > 32 µg/mL
- MIC (S. aureus (Sa); [3]): < 8 µg/mL
- MIC (E. coli (Ec); [3]): < 8 µg/mL
- MIC (E. faecalis (Ef); [3]): < 8 µg/mL
- MIC (P. aeruginosa (Pa); [3]): > 32 µg/mL
- IC50 [1]: > 1 µM
- IC50 [2]: 0.5 to 1 µM

SMILES: C[C@@H]1CCN(CCc2ccc(-n3ccc(NC(=O)N4CCN(C(=O)C(C)(C)N)CC4)nc3=O)cc2)CC[C@H]1N [Compound 27]
- MIC (A. baumannii (Ab); [4]): > 32 µg/mL
- MIC (S. aureus (Sa); [4]): < 8 µg/mL
- MIC (E. coli (Ec); [4]): < 8 µg/mL
- MIC (E. faecalis (Ef); [4]): < 8 µg/mL
- MIC (P. aeruginosa (Pa); [4]): 8 to 32 µg/mL
- IC50 [1]: > 1 µM
- IC50 [2]: < 0.5 µM

SMILES: CC(Cc1ccc(-n2ccc(NC(=O)N3CCN(C(=O)C(C)(C)N)CC3)nc2=O)cc1)N1CCC(N)CC1 (stereo not drawn) [Compound 169]
- MIC (A. baumannii (Ab); [3]): 8 to 32 µg/mL
- MIC (S. aureus (Sa); [3]): < 8 µg/mL
- MIC (E. coli (Ec); [3]): < 8 µg/mL
- MIC (E. faecalis (Ef); [3]): < 8 µg/mL
- MIC (P. aeruginosa (Pa); [3]): 8 to 32 µg/mL
- IC50 [1]: > 1 µM
- IC50 [2]: < 0.5 µM

SMILES: Cc1cc(-n2ccc(NC(=O)N3CCN(C(=O)C(C)(C)N)CC3)nc2=O)ccc1CN(C)C1CCC(N)CC1 (stereo not drawn) [Compound 284]
- MIC (A. baumannii (Ab); [3]): < 8 µg/mL
- MIC (S. aureus (Sa); [3]): < 8 µg/mL
- MIC (E. coli (Ec); [3]): < 8 µg/mL
- MIC (E. faecalis (Ef); [3]): < 8 µg/mL
- MIC (P. aeruginosa (Pa); [3]): 8 to 32 µg/mL
- IC50 [1]: > 1 µM
- IC50 [2]: < 0.5 µM

SMILES: CC(Cc1ccc(-n2ccc(NC(=O)N3CCN(C(=O)C(C)(C)N)CC3)nc2=O)cc1)NC[C@H]1C[C@H](N)C1 (stereo partly drawn) [Compound 156]
- MIC (A. baumannii (Ab); [4]): > 32 µg/mL
- MIC (S. aureus (Sa); [4]): < 8 µg/mL
- MIC (E. coli (Ec); [4]): < 8 µg/mL
- MIC (E. faecalis (Ef); [4]): 8 to 32 µg/mL
- MIC (P. aeruginosa (Pa); [4]): > 32 µg/mL
- IC50 [1]: > 1 µM
- IC50 [2]: < 0.5 µM

SMILES: CC(C)(N)C(=O)N1CCN(C(=O)Nc2ccn(-c3ccc(CCCN4CCCC(N)CC4)cc3)c(=O)n2)CC1 (stereo not drawn) [Compound 31]
- MIC (A. baumannii (Ab); [4]): > 32 µg/mL
- MIC (S. aureus (Sa); [4]): < 8 µg/mL
- MIC (E. coli (Ec); [4]): < 8 µg/mL
- MIC (E. faecalis (Ef); [4]): 8 to 32 µg/mL
- MIC (P. aeruginosa (Pa); [4]): > 32 µg/mL
- IC50 [1]: > 1 µM
- IC50 [2]: < 0.5 µM

SMILES: CC(C)(N)C(=O)N1CCN(C(=O)Nc2ccn(-c3ccc(CN4CCC(N)CC4)cc3)c(=O)n2)C(CO)C1 (stereo not drawn) [Compound 62]
- MIC (A. baumannii (Ab); [4]): > 32 µg/mL
- MIC (S. aureus (Sa); [4]): > 32 µg/mL
- MIC (E. coli (Ec); [4]): < 8 µg/mL
- MIC (E. faecalis (Ef); [4]): > 32 µg/mL
- MIC (P. aeruginosa (Pa); [4]): > 32 µg/mL
- IC50 [1]: > 1 µM
- IC50 [2]: < 0.5 µM

SMILES: CC(C)(N)C(=O)N1CCN(C(=O)Nc2ccn(-c3ccc(CN4CC(O)(CCN)C4)cc3)c(=O)n2)CC1 [Compound 205]
- MIC (A. baumannii (Ab); [3]): > 32 µg/mL
- MIC (S. aureus (Sa); [3]): 8 to 32 µg/mL
- MIC (E. coli (Ec); [3]): < 8 µg/mL
- MIC (E. faecalis (Ef); [3]): > 32 µg/mL
- MIC (P. aeruginosa (Pa); [3]): > 32 µg/mL
- IC50 [1]: > 1 µM
- IC50 [2]: < 0.5 µM

SMILES: CC(Cc1ccc(-n2ccc(NC(=O)N3CCN(C(=O)C(C)(C)N)CC3)nc2=O)cc1)N[C@@H]1CC[C@@H](N)C1 (stereo partly drawn) [Compound 173]
- MIC (A. baumannii (Ab); [3]): > 32 µg/mL
- MIC (S. aureus (Sa); [3]): < 8 µg/mL
- MIC (E. coli (Ec); [3]): < 8 µg/mL
- MIC (E. faecalis (Ef); [3]): 8 to 32 µg/mL
- MIC (P. aeruginosa (Pa); [3]): > 32 µg/mL
- IC50 [1]: > 1 µM
- IC50 [2]: < 0.5 µM

SMILES: NC1CCCN(CCc2ccc(-n3ccc(NC(=O)N4CCC5(CC4)CNC5)nc3=O)cc2)CC1 (stereo not drawn) [Compound 192]
- MIC (A. baumannii (Ab); [3]): > 32 µg/mL
- MIC (S. aureus (Sa); [3]): < 8 µg/mL
- MIC (E. coli (Ec); [3]): < 8 µg/mL
- MIC (E. faecalis (Ef); [3]): 8 to 32 µg/mL
- MIC (P. aeruginosa (Pa); [3]): > 32 µg/mL
- IC50 [1]: > 1 µM
- IC50 [2]: > 1 µM
